Patent publication US10052320B2, “Substituted quinoxalines as FGFR kinase inhibitors” (ASTEX THERAPEUTICS LIMITED, priority 2011, dated 2018)

Experiments:
FGFR1 (h) = FGFR1 (h) (Homo sapiens, UniProt P11362); experiment: FGFR1 (enzymatic assay), TR-FRET; assay type: biochemical; conditions: read-out: FGFR 1 pIC50 (converted)
Experimental: In a final reaction volume of 30 μL, FGFR1 (h) (25 ng/ml) was incubated with 50 mM HEPES pH 7.5, 6 mM MnCl2, 1 mM DTT, 0.1 mM Na3VO4, 0.01% Triton-X-100, 500 nM Btn-Flt3 and 5 μM ATP in the presence of compound (1% DMSO final). […] Time-Resolved Fluorescence Resonance Energy Transfer (TR-FRET) signal (ex340 nm. Em 620 nm, em 655 nm) was measured afterwards and results are expressed in RFU (Relative Fluorescence Units).

[1] = target: Ba/F3-FGFR1-transfected cells (Homo sapiens, UniProt P11362); experiment: Ba/F3-FGFR1 (minus IL3) cellular proliferation assay, Alamar Blue; assay type: cell-based; conditions: minus IL3, 384 well
Ba/F3-FGFR1-transfected cells, sequence (P11362 whole entry, change not shown): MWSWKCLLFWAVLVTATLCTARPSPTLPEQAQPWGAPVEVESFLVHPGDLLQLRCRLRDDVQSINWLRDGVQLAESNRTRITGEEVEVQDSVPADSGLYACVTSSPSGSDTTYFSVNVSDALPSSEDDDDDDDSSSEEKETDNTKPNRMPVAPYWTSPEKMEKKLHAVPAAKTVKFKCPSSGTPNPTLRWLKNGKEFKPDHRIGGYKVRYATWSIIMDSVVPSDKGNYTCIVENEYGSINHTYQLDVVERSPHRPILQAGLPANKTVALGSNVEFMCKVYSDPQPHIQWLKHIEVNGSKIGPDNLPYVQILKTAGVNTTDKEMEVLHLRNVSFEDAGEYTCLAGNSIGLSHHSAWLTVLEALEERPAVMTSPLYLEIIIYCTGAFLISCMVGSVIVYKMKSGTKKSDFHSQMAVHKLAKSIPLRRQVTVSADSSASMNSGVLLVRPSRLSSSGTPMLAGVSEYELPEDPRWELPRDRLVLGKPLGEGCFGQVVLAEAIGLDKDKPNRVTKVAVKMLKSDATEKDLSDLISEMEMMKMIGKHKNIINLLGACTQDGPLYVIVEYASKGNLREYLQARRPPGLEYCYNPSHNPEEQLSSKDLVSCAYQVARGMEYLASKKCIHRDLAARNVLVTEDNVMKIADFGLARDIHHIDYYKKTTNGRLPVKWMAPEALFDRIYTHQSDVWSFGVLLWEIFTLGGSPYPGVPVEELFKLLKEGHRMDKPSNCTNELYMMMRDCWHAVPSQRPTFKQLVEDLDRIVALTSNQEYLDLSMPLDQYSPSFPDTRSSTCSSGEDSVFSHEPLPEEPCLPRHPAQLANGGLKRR
Method in brief: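 First, compound was dispensed and cells added at 20000/well, or 10000/well in the larger-well version. Next came a 24 h incubation at 37 °C. Finally, resazurin reagent was applied for 4 h before fluorescence measurement at 540/590 nm.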

[2] = target: Ba/F3-FGFR3-transfected cells (Homo sapiens, UniProt P22607); experiment: Ba/F3-FGFR3 (minus IL3) cellular proliferation assay, Alamar Blue; assay type: cell-based; conditions: minus IL3, 384 well
Ba/F3-FGFR3-transfected cells, sequence (P22607 whole entry, change not shown): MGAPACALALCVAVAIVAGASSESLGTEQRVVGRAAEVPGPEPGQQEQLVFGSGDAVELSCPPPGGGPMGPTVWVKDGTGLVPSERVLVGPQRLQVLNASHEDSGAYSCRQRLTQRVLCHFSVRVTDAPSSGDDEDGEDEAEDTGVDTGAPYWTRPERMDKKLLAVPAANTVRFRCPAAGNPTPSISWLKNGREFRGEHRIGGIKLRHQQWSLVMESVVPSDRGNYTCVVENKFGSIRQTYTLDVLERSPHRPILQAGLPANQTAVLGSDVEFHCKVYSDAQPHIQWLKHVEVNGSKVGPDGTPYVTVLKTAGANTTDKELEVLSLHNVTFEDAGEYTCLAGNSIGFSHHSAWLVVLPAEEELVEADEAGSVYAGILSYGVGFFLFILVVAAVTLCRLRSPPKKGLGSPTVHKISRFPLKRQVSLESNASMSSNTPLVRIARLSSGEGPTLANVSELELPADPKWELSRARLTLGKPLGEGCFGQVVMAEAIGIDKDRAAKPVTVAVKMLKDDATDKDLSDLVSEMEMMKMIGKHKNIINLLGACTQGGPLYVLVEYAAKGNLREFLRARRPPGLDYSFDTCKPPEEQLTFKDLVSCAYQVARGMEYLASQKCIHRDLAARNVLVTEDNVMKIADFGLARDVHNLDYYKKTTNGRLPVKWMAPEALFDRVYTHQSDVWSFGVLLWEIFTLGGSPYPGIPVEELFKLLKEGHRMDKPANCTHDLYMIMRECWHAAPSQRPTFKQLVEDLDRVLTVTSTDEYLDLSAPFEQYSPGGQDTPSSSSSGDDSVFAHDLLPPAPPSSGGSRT
Method in brief: (§1)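 Compound in DMSO was applied to FGFR3-transfected Ba/F3 cells, which were cultured 24 h and assessed for viability by Alamar Blue reduction over 4 h (fluorescence, ex 540/em 590 nm).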

[3] = target: Ba/F3-FGFR4-transfected cells (Homo sapiens, UniProt P22455); experiment: Ba/F3-FGFR4 cellular proliferation assay, Alamar Blue; assay type: cell-based
Ba/F3-FGFR4-transfected cells, sequence (P22455 whole entry, change not shown): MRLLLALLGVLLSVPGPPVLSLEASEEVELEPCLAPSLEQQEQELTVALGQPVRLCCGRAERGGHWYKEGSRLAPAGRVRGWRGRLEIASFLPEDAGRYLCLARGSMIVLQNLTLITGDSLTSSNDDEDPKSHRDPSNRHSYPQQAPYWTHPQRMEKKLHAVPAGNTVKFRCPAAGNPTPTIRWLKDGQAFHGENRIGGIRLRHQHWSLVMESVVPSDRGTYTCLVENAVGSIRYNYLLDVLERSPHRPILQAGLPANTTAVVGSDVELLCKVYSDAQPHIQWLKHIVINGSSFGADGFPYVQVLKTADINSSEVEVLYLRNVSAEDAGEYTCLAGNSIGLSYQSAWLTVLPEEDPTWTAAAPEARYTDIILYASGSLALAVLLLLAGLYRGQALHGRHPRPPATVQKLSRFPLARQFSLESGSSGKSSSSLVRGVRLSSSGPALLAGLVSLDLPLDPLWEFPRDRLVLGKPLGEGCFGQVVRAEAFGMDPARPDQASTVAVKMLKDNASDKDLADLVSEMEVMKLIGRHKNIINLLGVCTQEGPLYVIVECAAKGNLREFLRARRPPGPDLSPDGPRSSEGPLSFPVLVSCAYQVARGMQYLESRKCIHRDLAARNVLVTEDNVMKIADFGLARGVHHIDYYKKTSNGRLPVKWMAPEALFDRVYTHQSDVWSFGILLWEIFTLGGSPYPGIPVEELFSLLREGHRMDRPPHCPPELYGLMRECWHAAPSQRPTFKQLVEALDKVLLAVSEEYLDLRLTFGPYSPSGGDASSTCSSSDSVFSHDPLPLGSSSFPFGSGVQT
Method in brief: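 Ba/F3 cells transfected with FGFR4, 20000 cells/well in phenol red-free RPMI-1640 with 10% FBS, were exposed to compound for 24 h at 37° C, 5% CO2. Alamar Blue (resazurin) was then added for 4 h, and fluorescence was read at ex 540/em 590 nm.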

[4] = system: Ba/F3-FGFR3-transfected cells in the presence of 10 ng/ml murine IL3; experiment: Ba/F3-FGFR3 (plus IL3) cellular proliferation counterscreen, Alamar Blue; assay type: cell-based; conditions: plus 10 ng/ml murine IL3, 384 well; for IC50: Mus musculus, read-out: BAF3-FGFR 3 (PLUS IL3) 384 well pIC50 (converted)
Method in brief: as §1

FGFR1 (h), sequence (P11362 22-822): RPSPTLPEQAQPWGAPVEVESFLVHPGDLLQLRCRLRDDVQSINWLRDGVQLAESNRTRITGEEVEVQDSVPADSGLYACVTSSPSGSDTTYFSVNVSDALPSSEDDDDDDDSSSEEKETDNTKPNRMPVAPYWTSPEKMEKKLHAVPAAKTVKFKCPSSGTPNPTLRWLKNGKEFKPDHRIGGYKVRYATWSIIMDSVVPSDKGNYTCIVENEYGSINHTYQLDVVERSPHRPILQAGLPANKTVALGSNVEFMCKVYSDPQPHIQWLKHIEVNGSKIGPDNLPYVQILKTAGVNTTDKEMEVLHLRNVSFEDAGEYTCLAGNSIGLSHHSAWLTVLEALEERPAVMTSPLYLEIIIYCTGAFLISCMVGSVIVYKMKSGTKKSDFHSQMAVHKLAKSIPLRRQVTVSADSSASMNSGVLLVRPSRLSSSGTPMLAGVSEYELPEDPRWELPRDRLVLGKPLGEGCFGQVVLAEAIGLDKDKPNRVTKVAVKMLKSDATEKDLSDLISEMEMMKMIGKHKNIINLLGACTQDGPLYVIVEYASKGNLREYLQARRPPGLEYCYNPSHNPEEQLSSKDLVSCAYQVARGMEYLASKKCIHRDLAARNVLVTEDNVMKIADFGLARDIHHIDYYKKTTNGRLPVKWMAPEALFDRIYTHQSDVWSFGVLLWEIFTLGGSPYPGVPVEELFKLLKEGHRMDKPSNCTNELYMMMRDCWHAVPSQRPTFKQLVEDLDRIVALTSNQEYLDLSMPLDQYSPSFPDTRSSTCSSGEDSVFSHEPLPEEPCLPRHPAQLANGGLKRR

SMILES	IC50 (FGFR1 (h)) [nM]	BAF3-FGFR 1 (MIN IL3) 384 well pIC50 [1]	BAF3-FGFR 3 (MIN IL3) 384 well pIC50 [2]	BAF3-FGFR4 pIC50 [3]	melting point [°C]	IC50 [4] [nM]	BAF3-FGFR 3 (PLUS IL3) 384 well pIC50 [4]
COc1cc(OC)cc(N(CCNC(C)C)c2ccc3ncc(-c4cccnc4)nc3c2)c1 [Compound 10]	2.75	7.55	7.53	6.6			
CNCCN(c1cc(OC)cc(OC)c1)c1ccc2ncc(-c3ccc(NC(=O)OC(C)(C)C)nc3)nc2c1 [Compound 81]	10.2	5.66	5.91	5.9	182		
CNC(=O)c1cc(-c2cnc3ccc(N(CCCNCC(F)(F)F)c4cc(OC)cc(OC)c4)cc3n2)ccn1 [Compound 122]	83.2	5.29	5.49	~5.1			
COc1cc(OC)cc(N(CCCO)c2ccc3ncc(-c4ccnc(C(=O)NCCCN)c4)nc3c2)c1 [Compound 33]	12.6	5.1	5.51	5.2	110		
COc1cc(OC)cc(N(CCO)c2ccc3ncc(-c4ccc(N)nc4)nc3c2)c1 [Compound 106]	5.43	6.455	~6.54	6.3	160		
COc1cc(OC)cc(N(CCCNCC(F)(F)F)c2ccc3ncc(-c4ccc(N(C)C(=O)OC(C)(C)C)nc4)nc3c2)c1 [Compound 127]	257	<5	<5	<5		> 10000	
COc1cc(OC)cc(N(Cc2cccc(CN)n2)c2ccc3ncc(-c4ccc(N)nc4)nc3c2)c1 [Compound 51]	3.72	5.88	~5.77	5.7		~8130	
CNC(=O)c1cc(-c2cnc3ccc(N(CCN4CCCC4=O)c4cc(OC)cc(OC)c4)cc3n2)ccn1 [Compound 25]	468	5.05	5.13	<5	176		
COc1cc(OC)cc(N(CCCO)c2ccc3ncc(-c4ccc(F)nc4)nc3c2)c1 [Compound 117]	20.4	6.67	6.25	5.5		> 10000	
CNC(=O)c1cc(-c2cnc3ccc(N(CCNCC(F)(F)F)c4cc(OC)cc(OC)c4)cc3n2)ccn1 [Compound 113]	85.1	5.44	~5.63	5.5	98		
COc1cc(OC)cc(N(CCNC(C)C)c2ccc3ncc(-c4ccccc4)nc3c2)c1 [Compound 121]	1.17	6.45	6.42	6.4			
COc1cc(OC)cc(N(CC(O)C(F)(F)F)c2ccc3ncc(-c4cccnc4)nc3c2)c1 (single isomer, unassigned) [Compound 54]					210		<5
CNC(=O)c1cc(-c2cnc3ccc(N(CCN4CCCC4CO)c4cc(OC)cc(OC)c4)cc3n2)ccn1 (centres unmarked) [Compound 109]	16.2	6.63	~6.77	6.2	172		
COc1cc(OC)cc(N(CC2CC2)c2ccc3ncc(-n4cnc(CO)c4)nc3c2)c1 [Compound 105]	28.2	5.32	5.53	5.53	154		
COc1cc(OC)cc(N(CC(O)C(F)(F)F)c2ccc3ncc(-c4cccnc4)nc3c2)c1 (single isomer, unassigned) [Compound 53]					211		
COc1cc(OC)cc(N(CC(OC(C)=O)C(F)(F)F)c2ccc3ncc(-c4cccnc4)nc3c2)c1 (single isomer, unassigned) [Compound 75]					180		<5
CNC(=O)c1cc(-c2cnc3ccc(N(CCNC(C)C)c4cc(OC)cc(OC)c4)cc3n2)ccn1 [Compound 14]	6.17	6.61	7.03	6.8	68		
CNC(=O)OCCN(c1cc(OC)cc(OC)c1)c1ccc2ncc(-c3ccc(NC(=O)OC(C)(C)C)nc3)nc2c1 [Compound 80]	398	5.08	5.09	<5	214		
COc1cc(OC)cc(N(CCNC(C)C)c2ccc3ncc(-c4ccn(C)c4)nc3c2)c1 [Compound 8]	0.457	8.13	~7.69	7.2			
COc1cc(OC)cc(N(CC2CO2)c2ccc3ncc(-c4ccc(N)nc4)nc3c2)c1 (centres unmarked) [Compound 110]	27.5	6.25	6.81	6.2	169		
COc1cc(OC)cc(N(CCCO)c2ccc3ncc(-c4ccnc(C(=O)NCCCCN)c4)nc3c2)c1 [Compound 126]	19.5	5.31	5.51	5.1	130		
COc1cc(OC)cc(N(CCCO)c2ccc3ncc(-c4ccc(C)nc4)nc3c2)c1 [Compound 115]	15.8	5.93	6.29	5.7	166		
COc1cc(OC)cc(N(CCO)c2ccc3ncc(-c4ccccc4)nc3c2)c1 [Compound 120]	8.91	5.71	~6.09	6.0	124		
COc1cc(OC)cc(N(CCCO)c2ccc3ncc(-c4ccnc(N)c4)nc3c2)c1 [Compound 66]	3.09	7.16	~7.05	6.3	137		
COc1cc(OC)cc(N(CCNC(C)C)c2ccc3ncc(-c4ccc(N)nc4)nc3c2)c1 [Compound 17]	1.23	6.975	~7.09	~7.11	144		
COc1cc(OC)cc(N(CCCO)c2ccc3ncc(-c4ccc(N(C)C(=O)OC(C)(C)C)nc4)nc3c2)c1 [Compound 125]	34.7	5.37	~6.04	<5	143		
